Measured values published in US20250214977A1, “STAT6 INHIBITORS AND USES THEREOF” (Kymera Therapeutics, Inc., priority 2024, published 2025).

Tested on: Phosphorylation of STAT6 in human A549 cells
Test: Phosphorylated STAT6 (pSTAT6) flow cytometry assay in human A549 cells
Type: cell-based
Settings: read-out: STAT6 IL4 pSTAT6 assay in A549 cells: Average IC50
From the text: Example 3. Phosphorylated STAT6 (pSTAT6) Flow Cytometry Assay in Human A549 Cells
Phosphorylation of STAT6 in human A549 cells was quantitatively measured using flow cytometry technology.

Row | Compound | IC50
1 | COc1ccccc1-c1cc(C2=CCCN(C(=O)CCn3ccnn3)C2)c(F)c2[nH]c(C(=O)N3CCN(c4ncc(N(C)C)cc4OC)CC3)cc12 [Example I-416] | < 100 nM
2 | COc1ccccc1-c1cc(C2=CCCN(C(=O)CCn3ccnn3)C2)c(F)c2[nH]c(C(=O)N3Cc4cn(-c5ncccc5OC)cc4C3)cc12 [Example I-417] | < 100 nM
3 | COc1ccccc1-c1cc(C2=CCCN(C(=O)CCn3ccnn3)C2)c(F)c2[nH]c(C(=O)N3CCN(c4ccccc4F)CC3)cc12 [Example I-418] | < 100 nM
4 | COc1ccccc1-c1cc(C2=CCCN(C(=O)CCn3ccnn3)C2)c(F)c2[nH]c(C(=O)N3CCN(c4ccccc4)CC3)cc12 [Example I-419] | < 100 nM
5 | COc1ccccc1-c1cc(C2=CCCN(C(=O)CCn3ccnn3)C2)c(F)c2[nH]c(C(=O)N3CCN(c4ccccc4OC(F)(F)F)CC3)cc12 [Example I-420] | 100 to 1000 nM
6 | COc1ccccc1-c1cc(C2=CCCN(C(=O)CCn3ccnn3)C2)c(F)c2[nH]c(C(=O)N3CCN(c4ccccc4C)CC3)cc12 [Example I-421] | < 100 nM
7 | COc1ccccc1-c1cc(C2=CCCN(C(=O)CCn3ccnn3)C2)c(F)c2[nH]c(C(=O)N3CCC(c4ccccc4OC)CC3)cc12 [Example I-422] | < 100 nM
8 | COc1ccccc1-c1cc(C2=CCCN(C(=O)CCn3ccnn3)C2)c(F)c2[nH]c(C(=O)N3CCN(c4ccccc4Cl)CC3)cc12 [Example I-423] | < 100 nM
9 | COc1ccccc1-c1cc(C2=CCCN(C(=O)CCn3ccnn3)C2)c(F)c2[nH]c(C(=O)N3CCN(c4c(F)cccc4OC4CC4)CC3)cc12 [Example I-424] | < 100 nM
10 | COc1ccccc1-c1cc(C2=CCCN(C(=O)CCn3ccnn3)C2)c(F)c2[nH]c(C(=O)N3CC=C(c4ncccc4OC)CC3)cc12 [Example I-425] | < 100 nM
11 | COc1ccccc1N1CCN(C(=O)c2cc3c(-c4cnccc4OC(F)F)cc(C4=CCCN(C(=O)CCn5ccnn5)C4)c(F)c3[nH]2)CC1 [Example I-426] | < 100 nM
12 | COc1ccccc1-c1cc(C2=CCCN(C(=O)CCn3ccnn3)C2)c(F)c2[nH]c(C(=O)N3CCN(c4cccc(OC(F)F)c4)CC3)cc12 [Example I-427] | < 100 nM
13 | COc1ccncc1-c1cc(C2=CCCN(C(=O)CCn3ccnn3)C2)c(F)c2[nH]c(C(=O)N3CCN(c4ncc(F)cc4OC)CC3)cc12 [Example I-428] | < 100 nM
14 | COc1ccncc1-c1cc(C2=CCCN(C(=O)CCn3ccnn3)C2)c(F)c2[nH]c(C(=O)N3CCN(c4ncncc4OC)CC3)cc12 [Example I-429] | < 100 nM
15 | COc1ccccc1-c1cc(C2=CCCN(C(=O)CCn3ccnn3)C2)c(F)c2[nH]c(C(=O)N3CCN(c4cccc(OC(F)(F)F)n4)CC3)cc12 [Example I-430] | 100 to 1000 nM
16 | COc1ccccc1-c1cc(C2=CCCN(C(=O)CCn3ccnn3)C2)c(F)c2[nH]c(C(=O)N3CCN(c4ccc(F)cc4OC)CC3)cc12 [Example I-431] | < 100 nM
17 | COc1ccccc1-c1cc(C2=CCCN(C(=O)CCn3ccnn3)C2)c(F)c2[nH]c(C(=O)N3CCN(c4c(F)cc(F)cc4OC)CC3)cc12 [Example I-432] | < 100 nM
18 | COc1ccncc1-c1cc(C2=CCCN(C(=O)CCn3ccnn3)C2)c(F)c2[nH]c(C(=O)N3CCN(c4nc(C)ccc4OC)CC3)cc12 [Example I-433] | > 100000 nM
19 | COc1ccncc1-c1cc(C2=CCCN(C(=O)CCn3ccnn3)C2)c(F)c2[nH]c(C(=O)N3CC=C(c4ccc(F)c(OC)n4)CC3)cc12 [Example I-434] | < 100 nM
20 | COc1cnccc1-c1cc(C2=CCCN(C(=O)CCn3ccnn3)C2)c(F)c2[nH]c(C(=O)N3CCN(c4ncc(C(F)(F)F)cc4OC)CC3)cc12 [Example I-435] | < 100 nM
21 | COc1cnc(N2CCN(C(=O)c3cc4c(-c5ccncc5OC)cc(C5=CCCN(C(=O)CCn6ccnn6)C5)c(F)c4[nH]3)CC2)c(OC)c1 [Example I-436] | < 100 nM
22 | COc1cnc(N2CCN(C(=O)c3cc4c(-c5cnccc5OC)cc(C5=CCCN(C(=O)CCn6ccnn6)C5)c(F)c4[nH]3)CC2)c(OC)c1 [Example I-437] | < 100 nM
23 | COc1ccncc1-c1cc(C2=CCCN(C(=O)CCn3ccnn3)C2)c(F)c2[nH]c(C(=O)N3CCN(c4ncc(C5CC5)cc4OC)CC3)cc12 [Example I-438] | < 100 nM
24 | CNc1cccnc1N1CCN(C(=O)c2cc3c(-c4ccccc4OC)cc(C4=CCCN(C(=O)CCn5ccnn5)C4)c(F)c3[nH]2)CC1 [Example I-439] | < 100 nM
25 | COc1cccc(N2CCN(C(=O)c3cc4c(-c5cnccc5OC)cc(C5=CCCN(C(=O)CCn6ccnn6)C5)c(F)c4[nH]3)CC2)n1 [Example I-440] | < 100 nM
26 | COc1ccncc1-c1cc(C2=CCCN(C(=O)CCn3ccnn3)C2)c(F)c2[nH]c(C(=O)N3CCN(c4nccnc4OC)CC3)cc12 [Example I-441] | < 100 nM
27 | COc1ccncc1-c1cc(C2=CCCN(C(=O)CCn3ccnn3)C2)c(F)c2[nH]c(C(=O)N3CC=C(c4ncc(F)cc4OC)CC3)cc12 [Example I-442] | < 100 nM
28 | COc1cccc(C2=CCN(C(=O)c3cc4c(-c5cnccc5OC)cc(C5=CCCN(C(=O)CCn6ccnn6)C5)c(F)c4[nH]3)CC2)n1 [Example I-443] | < 100 nM

Row | Compound | IC50
29 | COc1ccncc1-c1cc(C2=CCCN(C(=O)CCn3ccnn3)C2)c(F)c2[nH]c(C(=O)N3CCN(c4ccc(F)c(OC)n4)CC3)cc12 [Example I-444] | < 100 nM
30 | COc1ccncc1-c1cc(C2=CCCN(C(=O)CCn3ccnn3)C2)c(F)c2[nH]c(C(=O)N3CCN(c4ncc(C(F)(F)F)cc4OC)CC3)cc12 [Example I-445] | < 100 nM
31 | COc1cc(C(F)(F)F)cnc1N1CCN(C(=O)c2cc3c(-c4cnc5ccccc5c4OC)cc(C4=CCCN(C(=O)CCn5ccnn5)C4)c(F)c3[nH]2)CC1 [Example I-446] | 1000 to 10000 nM
32 | COc1c(-c2cc(C3=CCCN(C(=O)CCn4ccnn4)C3)c(F)c3[nH]c(C(=O)N4CCN(c5ncccc5OC5CC5)CC4)cc23)cnc2ccccc12 [Example I-447] | < 100 nM
33 | COc1ccccc1N1CCN(C(=O)c2cc3c(-c4cnc5ccccc5c4OC)cc(C4=CCCN(C(=O)CCn5ccnn5)C4)c(F)c3[nH]2)CC1 [Example I-448] | < 100 nM
34 | COc1c(-c2cc(C3=CCCN(C(=O)CCn4ccnn4)C3)c(F)c3[nH]c(C(=O)N4CCN(C5CC5)CC4)cc23)cnc2ccccc12 [Example I-449] | < 100 nM
35 | COc1ccncc1-c1cc(C2=CCCN(C(=O)CCn3ccnn3)C2)c(F)c2[nH]c(C(=O)N3CCN(c4ccc(Cl)cc4OC)CC3)cc12 [Example I-450] | < 100 nM
36 | COc1cccnc1C1=CCN(C(=O)c2cc3c(-c4cnc5ccccc5c4OC)cc(C4=CCCN(C(=O)CCn5ccnn5)C4)c(F)c3[nH]2)CC1 [Example I-451] | < 100 nM
37 | COc1ccncc1-c1cc(C2=CCCN(C(=O)CCn3ccnn3)C2)c(F)c2[nH]c(C(=O)N3CC=C(c4ncccc4OC)CC3)cc12 [Example I-452] | > 100000 nM
38 | CCc1cnc(N2CCN(C(=O)c3cc4c(-c5cnccc5OC)cc(C5=CCCN(C(=O)CCn6ccnn6)C5)c(F)c4[nH]3)CC2)c(OC)c1 [Example I-453] | < 100 nM
39 | COc1ccncc1-c1cc(C2=CCCN(C(=O)CCn3ccnn3)C2)c(F)c2[nH]c(C(=O)N3CCN(c4ncc(C(C)C)cc4OC)CC3)cc12 [Example I-454] | < 100 nM
40 | COc1ccncc1-c1cc(C2=CCCN(C(=O)CCn3ccnn3)C2)c(F)c2[nH]c(C(=O)N3CCN(c4ncccc4OC4CC4)CC3)cc12 [Example I-456] | < 100 nM
41 | COc1cnccc1-c1cc(C2=CCCN(C(=O)CCn3ccnn3)C2)c(F)c2[nH]c(C(=O)N3CCN(c4ncc(Cl)cc4OC)CC3)cc12 [Example I-457] | < 100 nM
42 | COc1ccncc1-c1cc(C2=CCCN(C(=O)CCn3ccnn3)C2)c(F)c2[nH]c(C(=O)N3CCN(c4ncc(Cl)cc4OC)CC3)cc12 [Example I-458] | < 100 nM
43 | COc1cc(F)ccc1-c1cc(C2=CCCN(C(=O)CCn3ccnn3)C2)c(F)c2[nH]c(C(=O)N3CCN(c4ncc(Cl)cc4OC)CC3)cc12 [Example I-459] | < 100 nM
44 | COc1cc(Cl)cnc1N1CCN(C(=O)c2cc3c(-c4cccnc4OC)cc(C4=CCCN(C(=O)CCn5ccnn5)C4)c(F)c3[nH]2)CC1 [Example I-460] | < 100 nM
45 | COc1cc(Cl)cnc1N1CCN(C(=O)c2cc3c(-c4cc(F)cc(F)c4OC)cc(C4=CCCN(C(=O)CCn5ccnn5)C4)c(F)c3[nH]2)CC1 [Example I-462] | 100 to 1000 nM
46 | COc1ccncc1-c1cc(C2=CCCN(C(=O)CCn3ccnn3)C2)c(F)c2[nH]c(C(=O)N3CCN(c4ccc(C(F)(F)F)cc4OC)CC3)cc12 [Example I-463] | < 100 nM
47 | COc1ccccc1-c1cc(C2=CCCN(C(=O)CCn3ccnn3)C2)c(F)c2[nH]c(C(=O)N3Cc4cnn(C)c4C3)cc12 [Example I-464] | < 100 nM
48 | COc1ccccc1-c1cc(C2=CCCN(C(=O)CCn3ccnn3)C2)c(F)c2[nH]c(C(=O)N3CCN(c4cnccc4OC)CC3)cc12 [Example I-465] | > 100000 nM
49 | CCc1ccc(OC)c(N2CCN(C(=O)c3cc4c(-c5cnccc5OC)cc(C5=CCCN(C(=O)CCn6ccnn6)C5)c(F)c4[nH]3)CC2)n1 [Example I-466] | < 100 nM
50 | COc1ccncc1-c1cc(C2=CCCN(C(=O)CCn3ccnn3)C2)c(F)c2[nH]c(C(=O)N3CCN(c4nnccc4OC)CC3)cc12 [Example I-467] | < 100 nM
51 | COc1cc(F)cnc1N1CCN(C(=O)c2cc3c(-c4cnc5ccccc5c4OC)cc(C4=CCCN(C(=O)CCn5ccnn5)C4)c(F)c3[nH]2)CC1 [Example I-468] | < 100 nM
52 | COc1nc(N2CCN(C(=O)c3cc4c(-c5cnc6ccccc6c5OC)cc(C5=CCCN(C(=O)CCn6ccnn6)C5)c(F)c4[nH]3)CC2)ccc1F [Example I-469] | 100 to 1000 nM
53 | CCOc1ccncc1-c1cc(C2=CCCN(C(=O)CCn3ccnn3)C2)c(F)c2[nH]c(C(=O)N3CCN(c4cncnc4OC)CC3)cc12 [Example I-470] | < 100 nM
54 | CCc1ccncc1-c1cc(C2=CCCN(C(=O)CCn3ccnn3)C2)c(F)c2[nH]c(C(=O)N3CCN(c4ccccc4OC)CC3)cc12 [Example I-471] | < 100 nM
55 | CCc1ccncc1-c1cc(C2=CCCN(C(=O)CCn3ccnn3)C2)c(F)c2[nH]c(C(=O)N3CCN(c4ncc(Cl)cc4OC)CC3)cc12 [Example I-472] | < 100 nM
